From PMC10041521, “Fluorescent Activity-Based Probe To Image and Inhibit Factor XIa Activity in Human Plasma” (Journal of Medicinal Chemistry, 2023)
“And” between values parts separate entries of the source, which are not always exact repeats. Equal values may be shown once. Each block holds one substance with its values, some of them ahead of it. [ ]: non-standard residue; d: D form. The star is where a group is joined. ACC = NC(=O)Cc1cc(=O)oc2cc(N*)ccc12; Nle = CCCC[C@H](N)C(=O)O; OBn = c1ccc(CO*)cc1; Bn = c1ccc(C*)cc1

What was measured:
Assay type in all cases: biochemical
[1] = target: T1, fXIa (Homo sapiens, UniProt P03951); assay: P1 substrate specificity, defined library Ac-Ala-Arg-Leu-P1-ACC; design: complete conversion of the single chain zymogen to the two-chain active form; made in house; host or cells: HEK293 cells expressing EBNA (pCEP4 vector); settings: individual substrates Ac-Ala-Arg-Leu-P1-ACC, 100 μM, 8 nM fXIa, RFU/s, best residue = 100%, n = 2
Protocol: (§1) All kinetic assays were performed using a spectrofluorometer (Molecular Devices SpectraMax Gemini XPS) on 96-well, white, flat bottom, nontreated plates (Corning). The parameters were as follows: excitation/emission wavelength, 355/460 nm (cutoff, 455 nm); varying concentrations of substrates, ABPs, inhibitor, and enzymes. The assay buffer (20 mM Tris-base, 150 mM NaCl, 5 mM CaCl2, pH 7.4) was prepared at room temperature, and the enzyme kinetic studies were performed at 37 °C. All enzymes were preincubated in assay buffer for 15 min at 37 °C before addition to the wells. Each assay was repeated at least twice, and the data represent the average of these repetitions. The obtained results were analyzed using SoftMax (Molecular Devices), GraphPad Prism, and Microsoft Excel software.
To determine fXIa preferences at the P1 position, we used the Ac-Ala-Arg-Leu-P1-ACC library of 133 individual fluorogenic substrates.[34] The assay conditions were as follows: 0.5 μL of each library substrate was placed in one well, and 99.5 μL of preincubated enzyme (15 min, 37 °C) was added. The final library concentration was 100 μM, and the enzyme concentration was 8 nM. The release of ACC was measured for 30 min (λex = 355 nm, λem = 460 nm), but only the linear portion of each progress curve was used to determine the substrate hydrolysis rate (RFU/s, relative fluorescence unit per second). […]

[2] = target: T1, fXIa; assay: Labeling of purified coagulation factors with ABPs, SDS-PAGE and blot; design: complete conversion of the single chain zymogen to the two-chain active form; made in house; host or cells: HEK293 cells expressing EBNA (pCEP4 vector); settings: APC, thrombin, fXa, fXIa 200 nM each, separately, probe/enzyme 1:1, 30 min, 37 °C; for labeling of purified coagulation factors by biotinylated ABP (western blot): streptavidin Alexa Fluor 647, 658 nm
Protocol: To determine biotin-labeled ABPs selectivity, four purified coagulation factors (APC, thrombin, fXa, and fXIa) with a constant concentration of 200 nM were incubated separately with each probe (the probe/enzyme ratio was 1) in assay buffer for 30 min at 37 °C. Each enzyme was incubated with each probe in a volume of 40 μL followed by reduction with 20 μL of 3 × SDS/DTT for 5 min at 95 °C. The first well was loaded with 0.5 μL of the protein marker PageRuler Prestained Protein Ladder (Thermo Scientific), and then 10 μL of each sample was run on a 12% (w/v) 15-well gel. SDS–PAGE separation was performed at 200 V for 39 min followed by a wet tank transfer to a nitrocellulose membrane (0.2 μm, Bio-Rad) at 10 V for 60 min. The membrane was blocked with 2.5% BSA in TBS-T (Tris-buffered saline with 0.1% (v/v) Tween 20) for 60 min at room temperature. Next, the membrane was incubated with fluorescent streptavidin Alexa Fluor 647 conjugate (dilution 1:10,000 in TBS-T with 1% BSA) for 60 min. The biotin-labeled ABPs were detected at 658 nm using an Azure Biosystems Sapphire Biomolecular Imager and Azure Spot Analysis software.
For fluorescently labeled probe sample preparation, electrophoresis and membrane transfer were performed as described above. When testing the inhibitor utility, 200 nM fXIa was incubated with inhibitor (final inhibitor concentration 5 μM) for 60 min prior to probe addition. After the membrane was blocked with 2.5% BSA in TBS-T (60 min), the labeled proteins were directly imaged with a […] laser using an Azure Biosystems Sapphire Biomolecular Imager and Azure Spot Analysis software.

[3] = target: T1, fXIa; assay: Kinetic parameters (kcat/KM) of ACC-labeled substrates; design: complete conversion of the single chain zymogen to the two-chain active form; made in house; host or cells: HEK293 cells expressing EBNA (pCEP4 vector); settings: for kcat/KM fXIa: Michaelis-Menten, 5 nM fXIa, 20 mM Tris, 150 mM NaCl, 5 mM CaCl2, pH 7.4, 37 °C, ACC release 30 min, mean ± s.d., n = 3
Protocol: as §1
(§2) The kinetic parameters (kcat, KM, and kcat/KM) of selected ACC-labeled substrates were determined using Michaelis–Menten nonlinear regression according to the protocol described by Poreba et al.[62] Each substrate was serially diluted until the eighth well to obtain substrate concentrations ranging from 1.16 nM to 111 μM depending on the substrate used. Next, each enzyme was preincubated (15 min, 37 °C) in assay buffer to a final enzyme concentration of 425 nM for APC, 70 nM for thrombin, 200 nM for fXa, and 5 nM for fXIa and was added to the wells containing eight different substrate concentrations. The release of ACC was measured for 30 min (λex = 355 nm, λem = 460 nm). The linear part of each progression curve was used to calculate the kinetic parameters using GraphPad Prism and Microsoft Excel software.

[4] = target: T2, thrombin (Homo sapiens, UniProt P00734); assay: as above; settings: Michaelis-Menten, 70 nM thrombin, assay buffer pH 7.4, 37 °C, ACC release 30 min; mean ± s.d., n = 3
T2 construct: from tissue; host or cells: fresh frozen plasma
Protocol: (§3) Protein C, factor X, and prothrombin were purified from fresh frozen plasma and then activated as previously described.[33]
as §1, §2

[5] = target: T3, fXa (Homo sapiens, UniProt P00742); assay: as above; settings: Michaelis-Menten, 200 nM fXa, assay buffer pH 7.4, 37 °C, ACC release 30 min; mean ± s.d., n = 3
T3 construct: from tissue; host or cells: fresh frozen plasma
Protocol: as §3, §1, §2

[6] = target: T1, fXIa; assay: Screening of individual substrates (hydrolysis rate, RFU/s); design: complete conversion of the single chain zymogen to the two-chain active form; made in house; host or cells: HEK293 cells expressing EBNA (pCEP4 vector); settings: substrate 1 μM, 5 nM fXIa, RFU/s over 30 min, 37 °C
Protocol: as §1
All potentially selective fXIa substrates were tested for their selectivity against four coagulation factors, APC, thrombin, fXa, and fXIa at a concentration of 1 μM. The assay conditions were as follows: 1 μL of each substrate was placed in separate wells on the plate followed by the addition of 99 μL of preincubated enzyme (15 min, 37 °C) in assay buffer. To obtain reliable results and a robust fluorescence signal, the final enzyme concentration was 120 nM for APC, 20 nM for thrombin, 70 nM for fXa, and 5 nM for fXIa. Substrate hydrolysis was measured for 30 min (λex = 355 nm, λem = 460 nm), and the linear part of each progress curve was used to determine the substrate hydrolysis rate (RFU/s). The obtained RFU/s were then adjusted to represent the value corresponding to the same enzyme activity.

[7] = target: T4, APC (Homo sapiens, UniProt P04070); assay: Kinetic parameters (kcat/KM) of ACC-labeled substrates; settings: Michaelis-Menten, 425 nM APC, assay buffer pH 7.4, 37 °C, ACC release 30 min; mean ± s.d., n = 3
T4 construct: from tissue; host or cells: fresh frozen plasma
Protocol: as §3, §1, §2

[8] = target: T1, fXIa; assay: Detection of fXIa in human plasma with fluorescent ABP; settings: EDTA plasma, 60 min, 37 °C
Protocol: Human plasma (collected in tubes containing anticoagulant EDTA) was isolated from whole blood as described elsewhere[33] and incubated with a fluorescently labeled probe at probe concentrations ranging from 1 to 20 μM. Incubation was carried out in assay buffer for 60 min at 37 °C. Plasma was incubated with the probe in a total volume of 40 μL (20 μL of plasma and 20 μL of probe) followed by reduction with 20 μL of 3 × SDS/DTT for 5 min at 95 °C. The first well was loaded with 0.5 μL of the protein marker PageRuler Prestained Protein Ladder (Thermo Scientific), and then 5 μL of each sample was run on a 12% (w/v) 15-well gel. SDS–PAGE separation was performed at 200 V for 39 min followed by transfer to a nitrocellulose membrane (0.2 μm, Bio-Rad) at 10 V for 60 min. The membrane was blocked with 2.5% BSA in TBS-T for 60 min at room temperature. Next, the membrane was treated with sheep antihuman polyclonal fXI antibody (Haematologic Technologies Inc., PAHFXI-S, 1:1000) for 7 h followed by incubation with Alexa Fluor 680 donkey antisheep secondary antibody (Life Technologies, A21102, 2:10,000) for 1 h (both at room temperature). The membrane was then scanned using an Azure Biosystems Sapphire Biomolecular Imager and Azure Spot Analysis software for fXIa at 488 nm (for BODIPY detection) and 658 nm (for antibody detection).

T1 sequence (P03951 388-625 limits assumed): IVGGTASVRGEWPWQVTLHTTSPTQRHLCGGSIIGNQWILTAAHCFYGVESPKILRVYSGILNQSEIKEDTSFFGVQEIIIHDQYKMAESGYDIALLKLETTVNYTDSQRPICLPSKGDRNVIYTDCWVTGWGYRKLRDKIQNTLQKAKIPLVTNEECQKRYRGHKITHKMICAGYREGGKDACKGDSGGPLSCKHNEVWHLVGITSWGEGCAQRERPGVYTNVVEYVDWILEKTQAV
T1 sequence (P03951 19-387 partner limits assumed): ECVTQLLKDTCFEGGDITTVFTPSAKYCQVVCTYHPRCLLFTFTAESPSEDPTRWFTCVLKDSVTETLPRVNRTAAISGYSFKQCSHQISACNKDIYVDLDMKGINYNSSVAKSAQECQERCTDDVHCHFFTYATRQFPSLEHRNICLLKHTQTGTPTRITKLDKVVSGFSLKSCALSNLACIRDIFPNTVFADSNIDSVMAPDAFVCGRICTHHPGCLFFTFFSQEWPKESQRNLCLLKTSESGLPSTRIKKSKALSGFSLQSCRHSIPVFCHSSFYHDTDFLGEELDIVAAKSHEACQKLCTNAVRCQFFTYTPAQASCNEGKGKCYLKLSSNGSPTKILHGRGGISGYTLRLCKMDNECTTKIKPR
T4 sequence (P04070 212-461 limits assumed): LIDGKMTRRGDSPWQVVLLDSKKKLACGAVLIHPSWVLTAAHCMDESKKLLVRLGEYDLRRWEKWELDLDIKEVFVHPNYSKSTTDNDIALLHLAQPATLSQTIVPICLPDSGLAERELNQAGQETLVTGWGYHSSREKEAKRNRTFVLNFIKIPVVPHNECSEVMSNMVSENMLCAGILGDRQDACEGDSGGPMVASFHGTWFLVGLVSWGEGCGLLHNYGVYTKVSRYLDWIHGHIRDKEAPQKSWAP
T4 sequence (P04070 43-197 partner limits assumed): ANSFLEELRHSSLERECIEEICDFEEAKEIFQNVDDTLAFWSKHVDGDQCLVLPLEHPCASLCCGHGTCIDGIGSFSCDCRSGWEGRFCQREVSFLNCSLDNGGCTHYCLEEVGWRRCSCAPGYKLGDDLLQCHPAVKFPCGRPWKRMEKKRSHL
T3 sequence (P00742 235-488 limits assumed): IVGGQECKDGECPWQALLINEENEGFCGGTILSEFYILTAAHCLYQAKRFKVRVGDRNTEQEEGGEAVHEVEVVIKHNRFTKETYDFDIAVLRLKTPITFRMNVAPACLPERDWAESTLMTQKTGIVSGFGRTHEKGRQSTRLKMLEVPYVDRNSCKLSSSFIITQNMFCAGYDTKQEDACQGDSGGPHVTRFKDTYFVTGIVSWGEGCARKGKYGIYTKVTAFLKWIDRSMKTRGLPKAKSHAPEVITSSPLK
T3 sequence (P00742 41-179 partner limits assumed): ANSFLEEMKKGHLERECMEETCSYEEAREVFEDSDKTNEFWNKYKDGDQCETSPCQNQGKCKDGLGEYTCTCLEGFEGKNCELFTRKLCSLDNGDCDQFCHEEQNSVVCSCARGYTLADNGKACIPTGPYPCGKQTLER

relative activity at the P1 position [1]: 100%
Substance: L-Arg

Substance: biotin-PEG(4)-Tyr(2,6-Cl2-Z)-Nle-Glu(Bzl)-ArgP(OPh)2 [P-SMXI51]
labeling of purified coagulation factors by biotinylated ABP (western blot) [2]: only one signal from a protein between 35 and 40 kDa, corresponding to a fXIa monomer

Substance: Ac-Tyr(2,6-Cl2-Z)-Nle-Glu(Bzl)-Arg-ACC [SMXI5]
kcat/KM fXIa [3]: 99,000 ± 7,000 M^-1 s^-1
kcat/KM thrombin [4]: 11,000 ± 300 M^-1 s^-1
kcat/KM fXa [5]: 4,500 ± 300 M^-1 s^-1

Substance: biotin-PEG(4)-Tyr(2,6-Cl2-Z)-Dht-His(Bzl)-ArgP(OPh)2 [P-SMXI191]
labeling of purified coagulation factors by biotinylated ABP (western blot) [2]: only one signal from a protein between 35 and 40 kDa, corresponding to a fXIa monomer

Substance: Ac-Tyr(2,6-Cl2-Z)-2-Aoc-Nle(O-Bzl)-Arg-ACC [SMXI22]
decrease in activity relative to SMXI3 (P2 L-His(Bzl)) [6]: 2.6 fold

Substance: Ac-Tyr(2,6-Cl2-Z)-Dht-His(Bzl)-Arg-ACC [SMXI19]
kcat/KM fXIa [3]: 247,000 ± 5,000 M^-1 s^-1 and 247,000 ± 5000 M^-1 s^-1
fold better hydrolyzed by fXIa than by fXa (kcat/KM ratio) ([3]; fXIa over fXa): 80 fold
fold better hydrolyzed by fXIa than by thrombin (kcat/KM ratio) ([3]; fXIa over thrombin): 28 fold
kcat/KM APC [7]: 91 ± 3 M⁻¹ s⁻¹

Substance: BODIPY-PEG(4)-Tyr(2,6-Cl2-Z)-Nle-Glu(Bzl)-ArgP(OPh)2 [P-SMXI52]
probe concentration from which a clear fXIa band is observed in human plasma ([8]; probe 1-20 μM, SDS-PAGE, 488 nm, costaining with antifXI antibody): ≥ 2 µM
selectivity of labeling in human plasma ([8]; probe up to 20 μM): remained selective even at a high probe concentration (20 μM)
labeling of purified coagulation factors by fluorescent ABP (blot, 488 nm) [2]: only one fluorescent band generated by fXIa labeling and no off-target signals

Substance: Ac-Tyr(2,6-Cl2-Z)-2-Aoc-hSer(Bzl)-Arg-ACC [SMXI23]
decrease in activity relative to SMXI3 (P2 L-His(Bzl)) [6]: 5.5 fold

Substance: Ac-Tyr(2,6-Cl2-Z)-2-Aoc-Glu(Bzl)-Arg-ACC [SMXI7]
decrease in activity relative to SMXI3 (P2 L-His(Bzl)) [6]: 1.5 fold

Substance: Ac-Y(Bn)[Nle]E(OBn)R-{ACC} (SMILES CCCC[C@H](NC(=O)[C@H](Cc1ccc(OCc2ccccc2)cc1)NC(C)=O)C(=O)N[C@@H](CCC(=O)OCc1ccccc1)C(=O)N[C@@H](CCCNC(=N)N)C(=O)Nc1ccc2c(CC(N)=O)cc(=O)oc2c1) [SMXI13]
activity on fXIa relative to SMXI5 ([6]; more active than SMXI5): fourfold
